Structures can show the parent of a compound that is named as a salt.
How the values were obtained:
mice [1] = assay: P-phenylquinone-induced abdominal writhing test in mice; assay type: in vivo, Male Charles River mice (Swiss Strain); details: Mus musculus, sc, 20 min; s.c.; 20 min pretreatment; p-phenylquinone 2 mg/Kg i.p.; graded protection; read-out: ANALGESIA MOUSE WRITHING ED50
Experimental: A) P-phenylquinone-induced abdominal writhing test in mice
The methodology employed is based on that described by Sigmund et al, Proc. Soc. Exptl. Biol. 95, 729/1957, modified by Milne and Twomey, Agents and Actions, 10, 31/1980.
Male Charles River mice (Swiss Strain), 25-36 g body weight, were used. Animals were allowed food and water ad libitum and were randomized into groups of 10 prior to experimentation. Test compounds were dissolved in either distilled water or distilled water plus 0.1M AMS, and administered by the subcutaneous route in a final volume of 10 ml/Kg. Control animals received 10 ml/Kg of the appropriate vehicle alone. Following a pretreatment period of 20 min., mice were injected intraperitoneally with p-phenylquinone, 2 mg/Kg at 37° C. in a final volume of […]. […] During this period the number of abdominal writhing responses per animal were recorded where writhing consists of an intermittent contraction of the abdomen associated with hind leg extension.
The degree of antinociceptive protection afforded by the test compound was determined as the mean number of writhing responses observed in the treated group (T) expressed as a percentage of the mean number of writhing responses in the control group (C) according to the following formula:
[1-(T/C]×100%=% graded protection

mice [2] = assay: Tail-flick test in mice; assay type: in vivo, Male Charles River mice (Swiss Strain); details: Mus musculus, sc, 0.5 h; s.c.; 30 min pretreatment; quantal protection (reaction time doubled); read-out: ANALGESIA MOUSE TAIL-FLICK ED50
Experimental: B) Tail-flick test in mice
The methodology employed is based on that described by D'Amour and Smith, J. Pharmacol. Exp. Ther. 72, 74/1941.
Male Charles River mice (Swiss Strain), 22-34 g body weight were used. Animals were allowed food and water ad libitum and were randomized into groups of 10 prior to experimentation.
Test compounds were dissolved in either distilled water or distilled water plus 0.1M AMS and administered by the subcutaneous route in a final volume of 10 ml/Kg. Control animals received 10 ml/kg of the appropriate vehicle alone. Following a pretreatment period of 30 min., the mice were again placed under the heat source and the reaction tine re-determined.
Percentage quantal protection was determined as the number of mice in which the reaction time was doubled compared to pretreatment values, expressed as a percentage of the total number of mice in the group.

SMILES	ED50 (mice [1])	ED50 (mice [2])
O=C(Cc1ccc(Cl)c(Cl)c1)N1CCCC[C@H]1CN1CC=CC1 [Example 1, (2S)-1-(3,4-dichlorophenyl)acetyl-2-(3-pyrrolin-1-yl)methyl piperidine hydrochloride]	0.005 mg/kg	0.045 mg/kg
CC1(C)CCCN(C(=O)Cc2ccc(Cl)c(Cl)c2)C1CN1CC=CC1 (centres unmarked) [Example 2, 1-(3,4-dichlorophenyl)acetyl-2-(3-pyrrolin-1-yl)methyl-3,3-dimethyl piperidine hydrochloride]	0.006 mg/kg	0.021 mg/kg
CC1(C)CCCN(C(=O)Cc2ccc(C(F)(F)F)cc2)C1CN1CC=CC1 (centres unmarked) [Example 3, 1-(4-trifluoromethylphenyl)acetyl-2-(3-pyrrolin-1-yl)methyl-3,3-dimethyl piperidine hydrochloride]	0.006 mg/kg	0.015 mg/kg
CC1(C)CCCN(C(=O)Cc2ccc3c(c2)CCCC3)C1CN1CC=CC1 (centres unmarked) [Example 4, 1-(5,6,7,8-tetrahydronapht-2-yl)acetyl-2-(3-pyrrolin-1-yl) methyl-3,3-dimethyl piperidine hydrochloride]	0.025 mg/kg	0.193 mg/kg
O=C(Cc1ccc(Cl)c(Cl)c1)N1CCc2ccccc2C1CN1CC=CC1 (centres unmarked) [Example 5, 1-(3-pyrrolin-1-yl)methyl-2-(3,4-dichlorophenyl)acetyl-1,2,3,4-tetrahydroisoquinoline hydrochloride]	0.005 mg/kg	0.015 mg/kg
CC1(C)CN(C(=O)Cc2ccc(Cl)c(Cl)c2)C(CN2CC=CC2)c2ccccc21 (centres unmarked) [Example 6, 1-(3-pyrrolin-1-yl)methyl-2-(3,4-dichlorophenyl)acetyl-4,4-dimethyl-1,2,3,4-tetrahydroisoquinoline hydrochloride]	0.047 mg/kg	0.275 mg/kg
O=C(Cc1ccc(Cl)c(Cl)c1)N1CCc2sccc2C1CN1CC=CC1 (centres unmarked) [Example 7, 4-(3-pyrrolin-1-yl)methyl-5-(3,4-dichlorophenyl)acetyl-4,5,6,7-tetrahydrothieno[3,2-c]pyridine hydrochloride hemihydrate]	0.002 mg/kg	0.008 mg/kg
CC1(C)CN(C(=O)Cc2ccc(Cl)c(Cl)c2)C(CN2CC=CC2)c2ccsc21.Cl (centres unmarked) [Example 8, 4-(3-pyrrolin-1-yl)methyl-5-(3,4-dichlorophenyl)acetyl-7,7-dimethyl-4,5,6,7-tetrahydrothieno[3,2-c]pyridine hydrochloride]	0.04 mg/kg	0.55 mg/kg
O=C1CCCc2cc(CC(=O)N3CCCC[C@H]3CN3CC=CC3)ccc21 [Example 9, (2S)-1-[1-oxo-3,4-dihydro-(2H)-napht-6-yl]acetyl-2-(3-pyrrolin-1-yl)methyl piperidine hydrochloride]	0.023 mg/kg	0.316 mg/kg
CC1(C)CCCN(C(=O)Cc2ccc3c(c2)CCCC3=O)C1CN1CC=CC1 (centres unmarked) [Example 10, 1-[1-oxo-3,4-dihydro-(2H)-napht-6-yl]acetyl-2-(3-pyrrolin-1-yl)methyl-3,3-dimethyl piperidine hydrochloride]	0.053 mg/kg	0.594 mg/kg
